Test results: US11319299B2, “Substituted carboxamides as inhibitors of WDR5 protein-protein binding” (PROPELLON THERAPEUTICS INC., priority 2016, dated 2022)
pIC50, pKd: −log10 of the molar value.

molecular target: WDR5 (Homo sapiens (Human), UniProt P61964); assay: Surface Plasmon Resonance (SPR) assay, KD and residence time; format: binding; conditions: surface plasmon resonance (SPR) assay; read-out: WDR5 binding affinity (KD)

Row | pKd | Structure (SMILES)
1 | 8.26 | C[C@@H]1CN(c2cc(F)c(C3=CCN(Cc4cccnc4)CC3)cc2NC(=O)c2c[nH]c(=O)cc2C(F)(F)F)C[C@H](C)N1C [Example 154, N-[4-fluoro-5-[1-(pyridin-3-ylmethyl)-3,6-dihydro-2H-pyridin-4-yl]-2-[(3R,5S)-3,4,5-trimethylpiperazin-1-yl]phenyl]-6-oxo-4-(trifluoromethyl)-1H-pyridine-3-carboxamide]
2 | 7.62 | C[C@@H]1CN(c2cc(F)c(-c3cnc(N4CCOCC4)nc3)cc2NC(=O)c2cc(F)ccc2C(F)(F)F)C[C@H](C)N1C [Example 88, 5-fluoro-N-[4-fluoro-5-(2-morpholin-4-ylpyrimidin-5-yl)-2-[(3R,5S)-3,4,5-trimethylpiperazin-1-yl]phenyl]-2-(trifluoromethyl)benzamide]
3 | 8.93 | C[C@@H]1CN(c2cc(F)c(-c3cnc(N4CCOCC4)c(C#N)c3)cc2NC(=O)c2c[nH]c(=O)cc2C(F)(F)F)C[C@H](C)N1C [Example 170, N-[5-(5-cyano-6-morpholin-4-ylpyridin-3-yl)-4-fluoro-2-[(3R,5S)-3,4,5-trimethylpiperazin-1-yl]phenyl]-6-oxo-4-(trifluoromethyl)-1H-pyridine-3-carboxamide]
4 | 8.05 | CC1CN(c2cc(F)c(-c3cnc(N4CCOCC4)nc3)cc2NC(=O)c2ccc(F)cc2Cl)CCN1C (stereo in doubt) [Example 230, 2-chloro-4-fluoro-N-[4-fluoro-5-(2-morpholin-4-ylpyrimidin-5-yl)-2-[(3R)-3,4-dimethylpiperazin-1-yl]phenyl]benzamide]
5 | 9.18 | C[C@@H]1CN(c2cc(F)c(C3=CCN(S(C)(=O)=O)C3)cc2NC(=O)c2c[nH]c(=O)cc2C(F)(F)F)C[C@H](C)N1C [Example 249, N-[4-fluoro-5-(1-methylsulfonyl-2,5-dihydropyrrol-3-yl)-2-[(3R,5S)-3,4,5-trimethylpiperazin-1-yl]phenyl]-6-oxo-4-(trifluoromethyl)-1H-pyridine-3-carboxamide]
6 | 8.76 | C[C@@H]1CN(c2cc(F)c(C3=CCCN(C(=O)N(C)C)C3)cc2NC(=O)c2c[nH]c(=O)cc2C(F)(F)F)C[C@H](C)N1C [Example 372, N-[5-[1-(dimethylcarbamoyl)-3,6-dihydro-2H-pyridin-5-yl]-4-fluoro-2-[(3R,5S)-3,4,5-trimethylpiperazin-1-yl]phenyl]-6-oxo-4-(trifluoromethyl)-1H-pyridine-3-carboxamide]
7 | 8.14 | C[C@@H]1CN(c2cc(F)c(C3=CCCN(C(=O)OC(C)(C)C)C3)cc2NC(=O)c2cn(C)c(=O)cc2C(F)(F)F)C[C@H](C)N1C [Example 325, tert-butyl 5-[2-fluoro-5-[[-methyl-6-oxo-4-(trifluoromethyl)pyridine-3-carbonyl]amino]-4-[(3R,5S)-3,4,5-trimethylpiperazin-1-yl]phenyl]-3,6-dihydro-2H-pyridine-1-carboxylate]

same assay, conditions: surface plasmon resonance (SPR); read-out: WDR5 binding affinity (KD)

Row | pKd | Structure (SMILES)
8 | 9.03 | COc1ccc(C(=O)N2CC=C(c3cc(NC(=O)c4c[nH]c(=O)cc4C(F)(F)F)c(N4C[C@@H](C)N(C)[C@@H](C)C4)cc3F)CC2)cc1 [Example 565, N-[4-fluoro-5-[1-(4-methoxybenzoyl)-3,6-dihydro-2H-pyridin-4-yl]-2-[(3R,5S)-3,4,5-trimethylpiperazin-1-yl]phenyl]-6-oxo-4-(trifluoromethyl)-1H-pyridine-3-carboxamide]
9 | 8.50 | C[C@@H]1CN(c2cc(F)c(-c3cc(F)c(C(=O)NC4CCCCC4(C)C)c(F)c3)cc2NC(=O)c2c[nH]c(=O)cc2C(F)(F)F)C[C@H](C)N1C (stereo partly drawn) [Example 711, N-[5-[4-[(2,2-dimethylcyclohexyl)carbamoyl]-3,5-difluorophenyl]-4-fluoro-2-[(3R,5S)-3,4,5-trimethylpiperazin-1-yl]phenyl]-6-oxo-4-(trifluoromethyl)-1H-pyridine-3-carboxamide]
10 | 8.56 | CC(C)COC(=O)N1CCC=C(c2cc(NC(=O)c3c[nH]c(=O)cc3C(F)(F)F)c(N3C[C@@H](C)N(C)[C@@H](C)C3)cc2F)C1 [Example 408, 2-methylpropyl 5-[2-fluoro-5-[[6-oxo-4-(trifluoromethyl)-1H-pyridine-3-carbonyl]amino]-4-[(3R,5S)-3,4,5-trimethylpiperazin-1-yl]phenyl]-3,6-dihydro-2H-pyridine-1-carboxylate]
11 | 6.95 | COCCCN(C)C1CCN(c2cc(F)c(-c3cnc(N4CCOCC4)nc3)cc2NC(=O)c2c[nH]c(=O)cc2C(F)(F)F)C1 (centres unmarked) [Example 572, N-[4-fluoro-2-[3-[3-methoxypropyl(methyl)amino]pyrrolidin-1-yl]-5-(2-morpholin-4-ylpyrimidin-5-yl)phenyl]-6-oxo-4-(trifluoromethyl)-1H-pyridine-3-carboxamide]
12 | 6.76 | CC1CN(c2cc(F)c(-c3cc(C(=O)NC(C)(C)CC(C)(C)C)c(F)cc3F)cc2NC(=O)c2ccc(F)cc2C(F)(F)F)CCN1C (stereo in doubt) [Example 625, 2,4-difluoro-5-[2-fluoro-5-[[4-fluoro-2-(trifluoromethyl)benzoyl]amino]-4-[(3R)-3,4-dimethylpiperazin-1-yl]phenyl]-N-(2,4,4-trimethylpentan-2-yl)benzamide]
13 | 8.81 | Cc1cc(C(=O)Nc2cc(-c3cnc(N4CCOC(C)C4)nc3)c(F)cc2N2C[C@@H](C)N(C)[C@@H](C)C2)cc(C)c1F (stereo in doubt) [Example 611, 4-fluoro-N-[4-fluoro-5-[2-[(2R)-2-methylmorpholin-4-yl]pyrimidin-5-yl]-2-[(3S,5R)-3,4,5-trimethylpiperazin-1-yl]phenyl]-3,5-dimethylbenzamide]
14 | 8.56 | CC1CN(c2cc(F)c(-c3cnn(CCN4CCOCC4)c3)cc2NC(=O)c2c[nH]c(=O)cc2C(F)(F)F)CCN1C (stereo in doubt) [Example 714, N-[4-fluoro-5-[1-(2-morpholin-4-ylethyl)pyrazol-4-yl]-2-[(3R)-3,4-dimethylpiperazin-1-yl]phenyl]-6-oxo-4-(trifluoromethyl)-1H-pyridine-3-carboxamide]
15 | 8.70 | C[C@@H]1CN(c2cc(F)c(-c3cc(F)c(C(=O)N(C)C4CCCC4)c(F)c3)cc2NC(=O)c2c[nH]c(=O)cc2C(F)(F)F)C[C@H](C)N1C [Example 761, N-(4′-(cyclopentyl(methyl)carbamoyl)-3′,5′,6-trifluoro-4-((3S,5R)-3,4,5-trimethylpiperazin-1-yl)-[1,1′-biphenyl]-3-yl)-6-oxo-4-(trifluoromethyl)-1,6-dihydropyridine-3-carboxamide]
16 | 8.54 | C[C@@H]1CN(c2cc(F)c(-c3ccsc3)cc2NC(=O)c2c[nH]c(=O)cc2C(F)(F)F)C[C@H](C)N1C [Example 493, N-[4-fluoro-2-[(3R,5S)-3,4,5-trimethylpiperazin-1-yl]-5-thiophen-3-ylphenyl]-6-oxo-4-(trifluoromethyl)-1H-pyridine-3-carboxamide]
17 | 8.47 | C[C@@H]1CN(c2cc(F)c(-c3cccs3)cc2NC(=O)c2c[nH]c(=O)cc2C(F)(F)F)C[C@H](C)N1C [Example 492, N-[4-fluoro-2-[(3R,5S)-3,4,5-trimethylpiperazin-1-yl]-5-thiophen-2-ylphenyl]-6-oxo-4-(trifluoromethyl)-1H-pyridine-3-carboxamide]
18 | 8.57 | CC1CN(c2cc(F)c(-c3ccnc(N4CCOCC4)n3)cc2NC(=O)c2cn(C)c(=O)cc2C(F)F)CCN1C (stereo in doubt) [Example 664, 4-(difluoromethyl)-N-[4-fluoro-5-(2-morpholin-4-ylpyrimidin-4-yl)-2-[(3R)-3,4-dimethylpiperazin-1-yl]phenyl]-1-methyl-6-oxopyridine-3-carboxamide]
19 | 7.81 | CN(CC1CC1)[C@@H]1CCN(c2cc(F)c(-c3cnc(N4CCOCC4)nc3)cc2NC(=O)c2c[nH]c(=O)cc2C(F)(F)F)C1 [Example 586, N-[4-fluoro-5-(2-morpholin-4-ylpyrimidin-5-yl)-2-[(3R)-3-[cyclopropylmethyl(methyl)amino]pyrrolidin-1-yl]phenyl]-6-oxo-4-(trifluoromethyl)-1H-pyridine-3-carboxamide]

system: MV4-11 cells; assay: Cell proliferation assay (ATPlite); format: cell-based; conditions: Homo sapiens, MV4-11, 120 h; MV-411 cells, five days; read-out: In vitro whole cell potency in MV-411 cells, (IC50)
Experimental: (iv) Cell Proliferation Assay
MV4-11 cells were seeded into a 96-well plate at 1,000 cells/well in 150 μl medium (Alpha-MEM containing 10% FBS, 100 μg/ml Normocin, and 50 μg/ml Gentamycin, Invitrogen). A HP D300 digital dispenser was used to dose cells with DMSO or test compounds across a 10-point range of concentrations (high dose of 10 μM), and cultures were grown in a humidified 5% CO2 incubator at 37° C. After five days, plates were removed from the incubator and equilibrated to room temperature. An equal volume of ATPlite assay reagent was added to each well, and samples were processed according to manufacturer's instructions (Perkin Elmer). Luminescent signal was measured using an Envision plate reader equipped with a US-Luminescence detector.

Row | pIC50 | Structure (SMILES)
20 | 6.03 | CCOc1ncc(-c2cc(NC(=O)c3c[nH]c(=O)cc3C(F)(F)F)c(N3CCN(C)CC3)cc2F)cn1 [Example 12, N-(5-(2-ethoxypyrimidin-5-yl)-4-fluoro-2-(4-methylpiperazin-1-yl)phenyl)-6-oxo-4-(trifluoromethyl)-1,6-dihydropyridine-3-carboxamide]
21 | < 5.00 | CN1CCN(c2cc(F)ccc2NC(=O)c2c[nH]c(=O)cc2C(F)(F)F)CC1 [Example 24, N-[4-fluoro-2-(4-methylpiperazin-1-yl)phenyl]-6-oxo-4-(trifluoromethyl)-1H-pyridine-3-carboxamide]
22 | 6.24 | CN1CCN(c2cc(F)c(-c3ccc(N4CCOCC4)nc3)cc2NC(=O)c2c[nH]c(=O)cc2C(F)(F)F)CC1 [Example 4, N-(4-fluoro-2-(4-methylpiperazin-1-yl)-5-(6-morpholinopyridin-3-yl)phenyl)-6-oxo-4-(trifluoromethyl)-1,6-dihydropyridine-3-carboxamide]
23 | 6.41 | COc1cc(N2C[C@@H](C)N(C)[C@@H](C)C2)c(NC(=O)c2c[nH]c(=O)cc2C(F)(F)F)cc1-c1cnc(N2CCOCC2)nc1 [Example 55, N-[4-methoxy-5-(2-morpholin-4-ylpyrimidin-5-yl)-2-[(3R,5S)-3,4,5-trimethylpiperazin-1-yl]phenyl]-6-oxo-4-(trifluoromethyl)-1H-pyridine-3-carboxamide]
